The values that follow are results of earlier work, collected in patent publication US20030153514A1, “Remedies for cancer” (priority 2000, published 2003).

This data set deals with NKT cells (Vα24Vβ11). To be noted: cancer-bearing mice.

In the case of `CCCCCCCCCCCCCCCCCCCCCCCCCC(=O)N[C@@H](CO[C@H]1O[C@H](CO)[C@H](O)[C@H](O)[C@H]1O)[C@H](O)[C@H](O)CCCCCCCCCCCCCC` [α-galactosylceramide], the NKT cells result is reported as “activated”, the disappearance of cancer entry is “not observed” and the metastasis entry is listed as “suppressed”.
